In one data set the test system is Neisseria gonorrhoeae. Briefly: microbe, parasite or virus in culture. In kind it is cell-based.
Data set [1] can be described thus: Toxicity study in mice, body weight over 7 days. It counts as in vivo, Balb/c mice. Conditions: for toxicity in mice (body weight over 7 days): 6-week-old Balb/c mice, vehicle 40% PEG300 in 0.9% NaCl. From the text:
The vehicle is 40% PEG300 solution in 0.9% NaCl. […] Thus, the compounds are useful for in vivo antimicrobial administration.

[2] abbreviates: ATCC49226, read-out: Neisseria gonorrhoeae ATCC 49226 MIC, strain ATCC 49226.
[3] abbreviates: read-out: Neisseria gonorrhoeae WHO 901 MIC, strain WHO 901.
The mark [4] stands for this setting: read-out: Neisseria gonorrhoeae WHO 914 MIC, strain WHO 914.
[5] abbreviates: IP 0.1 mg/kg, Day 0, individual animals, 0.1 mg/kg.
[6] abbreviates: IP 0.1 mg/kg, Day 1, individual animals, 0.1 mg/kg.
Setting [7] is: IP 0.1 mg/kg, Day 2, individual animals, 0.1 mg/kg.
Setting [8] is: IP 0.1 mg/kg, Day 3, individual animals, 0.1 mg/kg.
The mark [9] stands for this setting: IP 0.1 mg/kg, Day 4, individual animals, 0.1 mg/kg.
The mark [10] stands for this setting: IP 0.1 mg/kg, Day 5, individual animals, 0.1 mg/kg.
Setting [11] is: IP 0.1 mg/kg, Day 6, individual animals, 0.1 mg/kg.
The mark [12] stands for this setting: IP 0.1 mg/kg, Day 7, individual animals, 0.1 mg/kg.
Setting [13] is: IP 1 mg/kg, Day 0, individual animals, 1 mg/kg.
[14] abbreviates: IP 1 mg/kg, Day 1, individual animals, 1 mg/kg.
The mark [15] stands for this setting: IP 1 mg/kg, Day 2, individual animals, 1 mg/kg.
The mark [16] stands for this setting: IP 1 mg/kg, Day 3, individual animals, 1 mg/kg.
The mark [17] stands for this setting: IP 1 mg/kg, Day 4, individual animals, 1 mg/kg.
[18] abbreviates: IP 1 mg/kg, Day 5, individual animals, 1 mg/kg.
[19] abbreviates: IP 1 mg/kg, Day 6, individual animals, 1 mg/kg.
[20] abbreviates: IP 1 mg/kg, Day 7, individual animals, 1 mg/kg.
The mark [21] stands for this setting: IP 10 mg/kg, Day 0, individual animals, 10 mg/kg.
The mark [22] stands for this setting: IP 10 mg/kg, Day 1, individual animals, 10 mg/kg.
Setting [23] is: IP 10 mg/kg, Day 2, individual animals, 10 mg/kg.
Where [24] appears, read: IP 10 mg/kg, Day 3, individual animals, 10 mg/kg.
Setting [25] is: IP 10 mg/kg, Day 4, individual animals, 10 mg/kg.
[26] abbreviates: IP 10 mg/kg, Day 5, individual animals, 10 mg/kg.
Setting [27] is: IP 10 mg/kg, Day 6, individual animals, 10 mg/kg.
Where [28] appears, read: IP 10 mg/kg, Day 7, individual animals, 10 mg/kg.

Values after ≈ are worked out from the molar mass of the structure shown. Values joined by “and” are separate entries in the source; they are usually repeats but may differ in a detail not shown here. Identical values can stand only once. Like-named read-outs stand apart in the source and are kept apart here.

As to `CC(c1ccccc1)c1c[nH]c2ccc(F)cc12` (stereo not shown), the MIC in the data set on Neisseria gonorrhoeae (setting [2]) came to 8 µg/mL (≈ 33.4 µM); in the data set on Neisseria gonorrhoeae (setting [3]) it was 4 µg/mL (≈ 16.7 µM); with Neisseria gonorrhoeae (setting [4]) it was 8 µg/mL (≈ 33.4 µM).
For `Cc1ccccc1Oc1c[nH]c2ccc(F)cc12`, the MIC worked out at 8 µg/mL (≈ 33.2 µM) with Neisseria gonorrhoeae (setting [2]), 4 µg/mL (≈ 16.6 µM) in the data set on Neisseria gonorrhoeae (setting [3]) and 8 µg/mL (≈ 33.2 µM) in the data set with Neisseria gonorrhoeae (setting [4]).
Take `Cc1cccc(Cc2c[nH]c3ccc(F)cc23)c1`: the MIC with Neisseria gonorrhoeae (setting [2]) is 8 µg/mL (≈ 33.4 µM); with Neisseria gonorrhoeae (setting [3]), 8 µg/mL (≈ 33.4 µM); in the data set with Neisseria gonorrhoeae (setting [4]), above 8 µg/mL.
As for `Fc1ccc2[nH]cc(Cc3ccccc3F)c2c1`, the MIC with Neisseria gonorrhoeae (setting [2]) was 8 µg/mL (≈ 32.9 µM); in the data set on Neisseria gonorrhoeae (setting [3]), 8 µg/mL (≈ 32.9 µM); with Neisseria gonorrhoeae (setting [4]), above 8 µg/mL.
`Fc1ccc2[nH]cc(Cc3ccc(Br)cc3)c2c1` [3-(4 bromobenzyl)-5-fluoro-1H-indole]: the MIC in the data set on Neisseria gonorrhoeae (setting [2]) was determined as 4 µg/mL (≈ 13.2 µM).
With `Brc1ccc(Oc2c[nH]c3ccccc23)cc1` [3-(4-bromophenoxy)-1H-indole], the MIC in the data set on Neisseria gonorrhoeae (setting [2]) was above 8 µg/mL; in the data set with Neisseria gonorrhoeae (setting [3]), 4 µg/mL (≈ 13.9 µM); in the data set on Neisseria gonorrhoeae (setting [4]) it was above 8 µg/mL.
Turning to `c1ccc(Oc2c[nH]c3ccccc23)cc1` [3-phenoxy-1H-indole], the MIC with Neisseria gonorrhoeae (setting [2]), in the data set on Neisseria gonorrhoeae (setting [3]) and in the data set with Neisseria gonorrhoeae (setting [4]) was above 8 µg/mL in each case.
Turning to `Brc1ccc2[nH]cc(Oc3ccccc3)c2c1` [5 bromo-3-phenoxy-1H-indole], the MIC in the data set on Neisseria gonorrhoeae (setting [2]) turned out to be 8 µg/mL (≈ 27.8 µM); in the data set with Neisseria gonorrhoeae (setting [3]) it was 4 µg/mL (≈ 13.9 µM); with Neisseria gonorrhoeae (setting [4]) it was 8 µg/mL (≈ 27.8 µM).
Regarding `Brc1ccc(Oc2c[nH]c3ccc(Br)cc23)cc1` [5-bromo-3-(4-bromophenoxy)-1H-indole], the MIC in the data set with Neisseria gonorrhoeae (setting [2]) amounted to 4 µg/mL (≈ 10.9 µM); in the data set on Neisseria gonorrhoeae (setting [3]), 2 µg/mL (≈ 5.45 µM); with Neisseria gonorrhoeae (setting [4]), 4 µg/mL (≈ 10.9 µM).
Consider `Oc1ccccc1Sc1c[nH]c2ccc(Br)cc12` [Compound 174AI, 2-((5-bromo-1H-indol-3-yl)thio)phenol], for which the “toxicity in mice (body weight over 7 days)” value in data set [1] is reported as “did not have significant toxicity”. The Animal body weight was 0.023 kg (2×) and 0.022 kg in data set [1] (setting [5]); 0.022 kg (2×) and 0.021 kg in data set [1] (setting [6]); 0.023 kg and 0.022 kg and 0.021 kg in data set [1] (setting [7]); 0.024 kg and 0.022 kg (2×) in data set [1] (setting [8]); 0.024 kg and 0.022 kg (2×) in data set [1] (setting [9]); 0.024 kg and 0.022 kg (2×) in data set [1] (setting [10]). Besides, the Animal body weight in data set [1] (setting [11]) is 0.024 kg and 0.022 kg (2×); in data set [1] (setting [12]), 0.023 kg (2×) and 0.022 kg; in data set [1] (setting [13]) it was 0.022 kg and 0.024 kg and 0.026 kg; in data set [1] (setting [14]), 0.023 kg and 0.024 kg and 0.026 kg; in data set [1] (setting [15]), 0.023 kg and 0.025 kg and 0.026 kg; in data set [1] (setting [16]), 0.023 kg and 0.025 kg and 0.027 kg. In addition, the Animal body weight in data set [1] (setting [17]) is 0.022 kg and 0.025 kg and 0.026 kg; in data set [1] (setting [18]), 0.022 kg and 0.025 kg and 0.026 kg; in data set [1] (setting [19]), 0.022 kg and 0.024 kg and 0.026 kg; in data set [1] (setting [20]), 0.022 kg and 0.024 kg and 0.026 kg; in data set [1] (setting [21]), 0.022 kg and 0.026 kg and 0.024 kg; in data set [1] (setting [22]) it was 0.021 kg and 0.024 kg and 0.022 kg. Also, the Animal body weight in data set [1] (setting [23]) is 0.022 kg and 0.024 kg and 0.023 kg; in data set [1] (setting [24]) it was 0.022 kg and 0.025 kg and 0.023 kg; in data set [1] (setting [25]), 0.022 kg and 0.026 kg and 0.024 kg; in data set [1] (setting [26]), 0.023 kg and 0.026 kg and 0.024 kg; in data set [1] (setting [27]) it was 0.022 kg and 0.026 kg and 0.024 kg; in data set [1] (setting [28]), 0.022 kg and 0.026 kg and 0.023 kg.
On to `Fc1ccccc1Sc1c[nH]c2ccc(Br)cc12` [Compound 174AU, 5-bromo-3-((2-fluorophenyl)thio)-1H-indole], for which the “toxicity in mice (body weight over 7 days)” value in data set [1] was “did not have significant toxicity”. For the same compound, the Animal body weight was 0.026 kg and 0.023 kg and 0.024 kg in data set [1] (setting [5]); 0.024 kg and 0.022 kg and 0.023 kg in data set [1] (setting [6]); 0.025 kg and 0.022 kg and 0.023 kg in data set [1] (setting [7]); 0.025 kg and 0.022 kg and 0.023 kg in data set [1] (setting [8]); 0.025 kg and 0.022 kg and 0.023 kg in data set [1] (setting [9]); 0.025 kg and 0.023 kg and 0.024 kg in data set [1] (setting [10]). Moreover, the Animal body weight in data set [1] (setting [11]) was 0.025 kg and 0.022 kg and 0.023 kg; in data set [1] (setting [12]), 0.024 kg and 0.022 kg and 0.023 kg; in data set [1] (setting [13]), 0.026 kg and 0.022 kg and 0.025 kg; in data set [1] (setting [14]) it was 0.025 kg (2×) and 0.022 kg; in data set [1] (setting [15]), 0.026 kg and 0.022 kg and 0.025 kg; in data set [1] (setting [16]), 0.026 kg and 0.022 kg and 0.025 kg. Besides, the Animal body weight in data set [1] (setting [17]) was 0.026 kg and 0.023 kg and 0.025 kg; in data set [1] (setting [18]), 0.026 kg and 0.023 kg and 0.025 kg; in data set [1] (setting [19]) it was 0.025 kg (2×) and 0.023 kg; in data set [1] (setting [20]), 0.026 kg and 0.024 kg and 0.025 kg; in data set [1] (setting [21]), 0.024 kg (2×) and 0.025 kg; in data set [1] (setting [22]) it was 0.023 kg (2×) and 0.024 kg. Moreover, the Animal body weight in data set [1] (setting [23]) was 0.023 kg (2×) and 0.025 kg; in data set [1] (setting [24]) it was 0.024 kg and 0.023 kg and 0.025 kg; in data set [1] (setting [25]), 0.023 kg (2×) and 0.025 kg; in data set [1] (setting [26]), 0.023 kg (2×) and 0.026 kg; in data set [1] (setting [27]) it was 0.022 kg and 0.023 kg and 0.026 kg; in data set [1] (setting [28]) it was 0.022 kg and 0.023 kg and 0.026 kg.
Regarding `Cc1[nH]c2ccc(Br)cc2c1Sc1ccccc1Br` [Compound 174AZ, 5-bromo-3-((2-bromophenyl)thio)-2-methyl-1H-indole], in data set [1], the “toxicity in mice (body weight over 7 days)” value is listed as “did not have significant toxicity”. In addition, the Animal body weight in data set [1] (setting [5]) was 0.023 kg (2×) and 0.025 kg; in data set [1] (setting [6]) it was 0.022 kg and 0.024 kg and 0.023 kg; in data set [1] (setting [7]), 0.022 kg and 0.025 kg and 0.023 kg; in data set [1] (setting [8]), 0.022 kg and 0.025 kg and 0.023 kg; in data set [1] (setting [9]) it was 0.023 kg (2×) and 0.025 kg; in data set [1] (setting [10]), 0.022 kg and 0.025 kg and 0.023 kg. For the same compound, the Animal body weight was 0.022 kg and 0.025 kg and 0.023 kg in data set [1] (setting [11]); 0.022 kg (2×) and 0.025 kg in data set [1] (setting [12]); 0.024 kg (2×) and 0.025 kg in data set [1] (setting [13]); 0.023 kg and 0.024 kg (2×) in data set [1] (setting [14]); 0.024 kg in data set [1] (IP 1 mg/kg, Day 2, individual animals); 0.025 kg and 0.024 kg (2×) in data set [1] (setting [16]). In addition, the Animal body weight in data set [1] (setting [17]) is 0.025 kg (2×) and 0.024 kg; in data set [1] (setting [18]) it was 0.025 kg and 0.023 kg and 0.024 kg; in data set [1] (setting [19]) it was 0.025 kg and 0.024 kg (2×); in data set [1] (setting [20]) it was 0.025 kg and 0.023 kg and 0.024 kg; in data set [1] (setting [21]), 0.023 kg (2×) and 0.024 kg; in data set [1] (setting [22]), 0.022 kg (2×) and 0.023 kg. In addition, the Animal body weight in data set [1] (setting [23]) is 0.022 kg and 0.023 kg (2×); in data set [1] (setting [24]) it was 0.022 kg (2×) and 0.023 kg; in data set [1] (IP 10 mg/kg, Day 4, individual animals), 0.023 kg; in data set [1] (IP 10 mg/kg, Day 5, individual animals) it was 0.023 kg; in data set [1] (setting [27]), 0.022 kg (2×) and 0.023 kg; in data set [1] (setting [28]), 0.023 kg (2×) and 0.022 kg.
